Each structure is given as a SMILES string. pIC50: −log10 of the molar value. Where only a bound is given, the exact number is not on record here.

Series [1] is described as follows: cells. The conditions noted are these: Homo sapiens, HT-29, 72 h.
Description: Cytotoxicity against human HT-29 cells assessed as reduction in cell viability after 72 hrs by MTT assay
The nature of series [2]: Cytotoxicity against human HL-7702 cells assessed as reduction in cell viability after 72 hrs by MTT assay. The format is toxicity, cell-based, L02.
Series [3] is described as follows: Cytotoxicity against human A549 cells assessed as reduction in cell viability after 72 hrs by MTT assay. The format is functional, cell-based. The conditions noted are these: A549, 72 h. A general note: Formazan colour is commonly taken as a measure of viable cells.
Series [4] is described as follows: Cytotoxicity against human HepG2 cells assessed as reduction in cell viability after 72 hrs by MTT assay. The format is functional, cell-based. The conditions noted are these: HepG2, 72 h.
Series [5] in a line: Cytotoxicity against human PC3 cells assessed as reduction in cell viability after 72 hrs by MTT assay. The conditions noted are these: PC-3, 72 h. The format is functional, cell-based.

`CO[C@@]12C=C3C(=O)c4c(O)cc5c(c4O[C@@]34[C@@H]1C(C)(C)O[C@@]4(CC=C(C)C)C2=O)C=CC(C)(C)O5`: the pIC50 (as a rule, the negative decadic logarithm of the IC50, by convention in mol/L) in series [1] was 5.32; in series [3], 5.41; in series [4], 5.35; in series [5] it was 5.34. In addition, the IC50 (as a rule, the concentration needed to halve the response being measured) at 72 h in series [2] amounted to 8.6 µM.

Regarding `CC(C)=CCC/C(C)=C/C[C@@]1(CC=C(C)C)C(=O)C(O)=C(O)c2oc3c4c(cc(O)c3c(=O)c21)OC(C)(C)C=C4`, the negative logarithm of the IC50 (pIC50) in series [1] was 5.19; in series [3] it was 5.30; in series [4] it was below 5.00; in series [5], 5.23. Besides, in series [2], the IC50 at 72 h is above 10 µM.

As for `C=C(C)[C@H]1C[C@](C/C=C(\C)CCC=C(C)C)(C(=O)O)c2c(oc3c(CC=C(C)C)c(O)cc(O)c3c2=O)[C@@H]1O`, the pIC50 in series [1], in series [3], in series [4] and in series [5] was below 5.00 in each case.

As for `CO[C@]12C=C3C(=O)c4c(O)cc(O)c(CC=C(C)C)c4O[C@]34C(C1)C(C)(C)O[C@]4(CC=C(C)C)C2=O`, the pIC50 in series [1] is 5.66; in series [3], 5.52; in series [4], 5.55; in series [5], 5.68. Also, the IC50 at 72 h in series [2] amounted to 2.5 µM.

As to `CC(C)=CCC/C(C)=C/C[C@]1(C(=O)O)CC(=C(C)C)C(=O)c2oc3c(CC=C(C)C)c(O)cc(O)c3c(=O)c21`, the pIC50 in series [1], in series [3], in series [4] and in series [5] was below 5.00 in each case.

For the molecule `CC(C)=CCC1(CC=C(C)C)C(=O)C(O)=C(O)c2oc3c4c(cc(O)c3c(=O)c21)OC(C)(C)C=C4`, the pIC50 in series [1] is 5.39; in series [3] it was 5.26; in series [4] it was 5.21; in series [5] it was 5.49. The IC50 at 72 h in series [2] amounted to 6.4 µM.

Turning to `CO[C@]12C=C3C(=O)c4c(O)c(CC=C(C)C)c(O)c(CC=C(C)C)c4O[C@]34C(C1)C(C)(C)O[C@]4(CC=C(C)C)C2=O`, the pIC50 in series [1] is 5.64; in series [3] it was 5.54; in series [4], 5.54; in series [5] it was 5.64. For the same molecule, the IC50 at 72 h in series [2] came to 3.1 µM.

Take `CC(C)=CCc1c(O)c(O)c(O)c2oc3c4c(cc(O)c3c(=O)c12)OC(C)(C)C=C4`: the pIC50 in series [1], in series [3], in series [4] and in series [5] was below 5.00 each time.

As to `CC(C)=CCC1=C(O)C(=O)C(CC=C(C)C)(CC=C(C)C)c2c1oc1cc(O)cc(O)c1c2=O`, the pIC50 in series [1], in series [3], in series [4] and in series [5] was below 5.00 in each case.

Regarding `CC(C)=CCc1c(O)cc(O)c2c(=O)c3c(oc12)C(CC=C(C)C)(CC=C(C)C)C(=O)C(O)=C3`, the negative-log IC50 (pIC50) in series [1], in series [3], in series [4] and in series [5] was below 5.00 throughout.

On to `CC(C)=CCC1(C(=O)O)CC(=C(C)C)C(=O)c2oc3c4c(cc(O)c3c(=O)c21)OC(C)(C)C=C4` (racemic), for which the pIC50 in series [1], in series [3], in series [4] and in series [5] was below 5.00 throughout.

For the molecule `CC(C)=CCc1cc(C(C)C)c(O)c2oc3c4c(cc(O)c3c(=O)c12)OC(C)(C)C=C4`, the negative logarithm of the IC50 (pIC50) in series [1], in series [3], in series [4] and in series [5] was below 5.00 throughout.

`CC(=O)O[C@H]1C(=O)[C@@]2(C)[C@H]([C@H](OC(=O)c3ccccc3)[C@]3(O)C[C@H](OC(=O)[C@H](O)[C@@H](NC(=O)c4ccccc4)c4ccccc4)C(C)=C1C3(C)C)[C@]1(OC(C)=O)CO[C@@H]1C[C@@H]2O` [PACLITAXEL]: the concentration for half-maximal inhibition (IC50) at 72 h in series [2] was found to be 0.06 µM. Also, the results for the pIC50 in series [3], in series [4] and in series [5] were 7.10, 6.70 and 7.52, respectively.
